Earlier results as cited in patent publication US6548045B2, “Nitroimidazole substituted porphyrin complex” (Photochemical Co., Ltd., priority 1999, dated 2003).

Tests used:
[1] = in vivo
anoxic tissues in tumor [2] = conditions: in vivo
anoxic tissues in tumor [3] = conditions: animal experiment implanting tumor

Structure (SMILES): COCC(O)Cn1ccnc1[N+](=O)[O-] (stereo not drawn) [Misonidazole]
- neurotoxicity [1]: high neurotoxin
- efficacy in the human being (anoxic tissues in tumor [2]): no efficacy is observed
- efficacy compared with absence of the compound (anoxic tissues in tumor [3]): twice times more efficacies
